The source of these data is ChEMBL document CHEMBL1201862, “PubChem BioAssay data set” (2004).

The structures appear in SMILES notation.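 A five-concentration, 48-hour dose response in 96-well plates underlies each endpoint, interpolated linearly between surrounding concentrations. GI50 is the concentration that inhibits growth by half.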 Activity calls are given as the source filed them. Cut-off read from the data, not from the text of the source: active = GI50 up to about 1.1 µM and inactive = higher. A value given as a limit tells only on which side of the number the result lay.

Test systems include NCI-H460; IGROV-1; HT-29; HCT-116; SF-539; OVCAR-4; ACHN; SN12C; SK-MEL-2; EKVX; Malme-3M; NCI-H23; MOLT-4; SF-268; SR; HCT-15; A498.
Assay in all cases: inhibition of tumour cell growth, NCI panel, 48 h

Take `O=c1c2cccnc2ncn1CCN1CCCCC1`: the GI50 in the assay with NCI-H460, in the assay with IGROV-1, in the assay on HT-29, with HCT-116, in the assay on SF-539 and with OVCAR-4 was > 100 µM (inactive) throughout. The GI50 in the assay on ACHN, with SN12C, in the assay on SK-MEL-2, with EKVX, with Malme-3M and with NCI-H23 was > 100 µM (inactive) in each case. The GI50 in the assay on MOLT-4, with SF-268 and in the assay with SR was > 100 µM (inactive) in each case.
For the molecule `Cc1ccc(O)c(C(=O)CCCC(=O)c2cc(C)ccc2O)c1`, the GI50 in the assay on HCT-15 was 45.8 µM; in the assay with NCI-H460, > 100 µM (inactive); with IGROV-1, > 100 µM (inactive); with HT-29 it was > 100 µM (inactive); with SF-539, > 100 µM (inactive); in the assay on OVCAR-4, 74.5 µM (inactive). The GI50 with ACHN, in the assay on SN12C, in the assay with SK-MEL-2, in the assay with EKVX, in the assay with Malme-3M and in the assay on NCI-H23 was > 100 µM (inactive) each time. The GI50 in the assay on MOLT-4, with SF-268 and with A498 was > 100 µM (inactive) each time.
As for `CC(C(=O)c1ccc(O)cc1)C1(O)C(=O)Nc2c(Cl)cc(Cl)cc21` (configuration not stated), the GI50 in the assay with HCT-15 was 71.6 µM; with NCI-H460 it was > 86.1 µM (inactive); in the assay on IGROV-1, > 100 µM (inactive); in the assay with HT-29 it was > 73.8 µM (inactive); with HCT-116 it was 43.1 µM (inactive); in the assay on SF-539, 51.2 µM (inactive). Besides, the GI50 was 21.7 µM (inactive) with OVCAR-4; 16.6 µM (inactive) in the assay on ACHN; 44.9 µM (inactive) in the assay on SN12C; > 100 µM (inactive) in the assay on SK-MEL-2; 49.3 µM (inactive) in the assay with EKVX; > 100 µM (inactive) in the assay on Malme-3M. Further, the GI50 with NCI-H23 was 59.8 µM (inactive); in the assay with MOLT-4, 28.9 µM (inactive); with SF-268 it was > 76.9 µM (inactive); in the assay on A498, > 49.1 µM (inactive).
As to `CC1NS(=O)(=O)N(C)C1=O` (configuration not stated), the GI50 is > 100 µM in the assay on HCT-15; > 100 µM (inactive) with IGROV-1; > 100 µM (inactive) in the assay with HCT-116; > 100 µM (inactive) with SF-539; > 100 µM (inactive) with OVCAR-4; > 100 µM (inactive) in the assay with ACHN. For the same molecule, the GI50 in the assay with SN12C, in the assay on SK-MEL-2, in the assay on Malme-3M, in the assay with NCI-H23, in the assay with MOLT-4 and with SF-268 was > 100 µM (inactive) in each case. Further, the GI50 in the assay with SR is > 100 µM (inactive).
`CCCCCCCCCC1C(C)c2c([nH]c3ccccc23)C2C(=O)N(c3ccccc3)C(=O)C21` (configuration not stated): the GI50 with HCT-15 is 11 µM; in the assay on NCI-H460, 4.18 µM (inactive); in the assay on IGROV-1, 18.8 µM (inactive); with HT-29, 10.8 µM (inactive); in the assay on HCT-116 it was 2.94 µM (inactive); in the assay with SF-539, 19.7 µM (inactive). Also, the GI50 in the assay with OVCAR-4 is 5.9 µM (inactive); in the assay on ACHN, 10.8 µM (inactive); in the assay with SK-MEL-2, 16.8 µM (inactive); in the assay with EKVX it was 54 µM (inactive); in the assay on Malme-3M, 41.9 µM (inactive); in the assay on NCI-H23, 3.72 µM (inactive). The results for the GI50 in the assay with MOLT-4 and in the assay with A498 were 2.54 µM (inactive) and 19.2 µM (inactive), respectively.
For `C#CCOCn1cnc2c(Sc3c([N+](=O)[O-])ncn3C)ncnc21`, the GI50 in the assay with HCT-15 is > 100 µM; with NCI-H460 it was > 100 µM (inactive); in the assay on IGROV-1, > 100 µM (inactive); with HT-29, > 100 µM (inactive); with OVCAR-4, 87.5 µM (inactive); with ACHN, > 100 µM (inactive). Besides, the GI50 in the assay on SN12C, in the assay on SK-MEL-2, with EKVX, with Malme-3M, in the assay on NCI-H23 and in the assay on SF-268 was > 100 µM (inactive) throughout. Also, in the assay with A498, the GI50 is > 100 µM (inactive).
Regarding `COC(=O)/C(C#N)=C1\CCc2ccccc21`, the GI50 is > 100 µM in the assay on HCT-15; > 100 µM (inactive) in the assay with NCI-H460; > 100 µM (inactive) with IGROV-1; > 100 µM (inactive) with HT-29; > 100 µM (inactive) in the assay with SF-539; > 100 µM (inactive) in the assay on OVCAR-4. For the same molecule, the GI50 in the assay on ACHN, in the assay with SN12C, in the assay on SK-MEL-2, in the assay on EKVX, in the assay on Malme-3M and in the assay on NCI-H23 was > 100 µM (inactive) each time. In addition, the GI50 in the assay with MOLT-4, in the assay on SF-268 and in the assay with A498 was > 100 µM (inactive) each time.
Regarding `COC(=O)C(=C\Sc1ccccc1)/C=C/C(=O)OC(C)(C)C`, the GI50 is 6.67 µM in the assay on HCT-15; 17.7 µM (inactive) with NCI-H460; 13.1 µM (inactive) in the assay with IGROV-1; 16.5 µM (inactive) with HT-29; 8.47 µM (inactive) in the assay with HCT-116; 13.6 µM (inactive) in the assay with SF-539. In addition, the GI50 was 15 µM (inactive) in the assay with OVCAR-4; 7.23 µM (inactive) in the assay on ACHN; 12 µM (inactive) in the assay on SK-MEL-2; 10.6 µM (inactive) with EKVX; 15.9 µM (inactive) with Malme-3M; 17.1 µM (inactive) in the assay on NCI-H23. For the same molecule, the GI50 was 2.84 µM (inactive) in the assay on MOLT-4, 14.9 µM (inactive) in the assay with SF-268 and 2.87 µM (inactive) in the assay with SR.
With `Cn1ccc(=NS(=O)(=O)c2ccccc2)cc1`, the GI50 in the assay on NCI-H460, in the assay with IGROV-1, in the assay on HT-29, with HCT-116, with SF-539 and in the assay on ACHN was > 100 µM (inactive) in each case. The GI50 in the assay with SK-MEL-2, in the assay on EKVX, in the assay with Malme-3M, with NCI-H23, in the assay with MOLT-4 and in the assay with SF-268 was > 100 µM (inactive) each time. Further, in the assay on A498, the GI50 was > 100 µM (inactive).
For `Nc1nc(O)c2c(ncn2CCO)n1`, the GI50 in the assay on HCT-15 was > 100 µM; with NCI-H460 it was > 100 µM (inactive); with HT-29 it was > 100 µM (inactive); with HCT-116, > 100 µM (inactive); with SF-539, > 100 µM (inactive); in the assay on ACHN it was > 100 µM (inactive). Moreover, the GI50 with SN12C, in the assay on SK-MEL-2, in the assay with EKVX, with Malme-3M, in the assay on NCI-H23 and in the assay with MOLT-4 was > 100 µM (inactive) throughout. For the same molecule, the GI50 in the assay with SF-268 and in the assay with SR was > 100 µM (inactive) each time.
As for `NC1=NS(=O)(=O)Nc2nc(-c3ccccc3)c(-c3ccccc3)nc21`, the GI50 is > 100 µM with HCT-15; > 100 µM (inactive) in the assay with NCI-H460; > 100 µM (inactive) in the assay with IGROV-1; > 100 µM (inactive) in the assay with HT-29; > 100 µM (inactive) in the assay on HCT-116; > 100 µM (inactive) in the assay on SF-539. Besides, the GI50 with OVCAR-4, in the assay with ACHN, in the assay with SN12C, with SK-MEL-2, with EKVX and in the assay with Malme-3M was > 100 µM (inactive) each time. The GI50 in the assay with NCI-H23, in the assay on MOLT-4, in the assay with SF-268 and with SR was > 100 µM (inactive) throughout.
On to `COc1ccc2nc3c(C(=O)NCCN(C)C)cccc3nc2c1`, for which the GI50 in the assay with HCT-15 is 3.93 µM; with IGROV-1 it was 5.61 µM (inactive); in the assay with HT-29, 4.17 µM (inactive); in the assay with HCT-116 it was 3.32 µM (inactive); in the assay with SF-539, 2.51 µM (inactive); in the assay on OVCAR-4 it was 6.58 µM (inactive). Besides, the GI50 in the assay with ACHN is 3.94 µM (inactive); in the assay on SN12C, 3.41 µM (inactive); with SK-MEL-2, 6.21 µM (inactive); with EKVX, 3.86 µM (inactive); in the assay with NCI-H23, 4.73 µM (inactive); in the assay on MOLT-4 it was 3.63 µM (inactive). For the same molecule, the figures for the GI50 in the assay on SF-268 and in the assay with A498 were 7.36 µM (inactive) and 1.84 µM (inactive), respectively.
As for `O=C1c2cccc(O)c2C(=O)c2cccc(O)c21` [ANTHRARUFIN], the GI50 in the assay on HCT-15 was > 100 µM; in the assay with NCI-H460 it was > 100 µM (inactive); with IGROV-1, > 100 µM (inactive); in the assay with HT-29, > 100 µM (inactive); with HCT-116, > 100 µM (inactive); in the assay on SF-539, > 100 µM (inactive). Besides, the GI50 in the assay with OVCAR-4, in the assay with ACHN, in the assay on SN12C, with SK-MEL-2, with EKVX and with NCI-H23 was > 100 µM (inactive) throughout. The GI50 with MOLT-4, in the assay with SF-268 and in the assay on A498 was > 100 µM (inactive) each time.
Consider `Cc1cc(NCCCCCCCCNc2cc(C)nc3cc(N)ccc23)c2ccc(N)cc2n1`, for which the GI50 in the assay with HCT-15 was 41.5 µM; in the assay on NCI-H460, 15.7 µM (inactive); with HT-29, 21.8 µM (inactive); with SF-539 it was 17 µM (inactive); in the assay on OVCAR-4 it was 17.3 µM (inactive); in the assay with ACHN it was 37.7 µM (inactive). Besides, the GI50 in the assay with SN12C is 15.8 µM (inactive); in the assay with SK-MEL-2, 13.6 µM (inactive); in the assay on EKVX, 22.2 µM (inactive); with NCI-H23, 14.3 µM (inactive); with MOLT-4 it was > 100 µM (inactive); in the assay with SF-268, 26.2 µM (inactive). Moreover, the GI50 is 39.6 µM (inactive) in the assay with A498 and 10.9 µM (inactive) in the assay on SR.
